Test results taken from patent US7300918B2, “Method of producing vaccines from protein signal oligopeptides” (priority 1994, dated 2007).
Several values for one entry are separate records, joined by “and”; a condition that tells them apart may be missing. Identical values can stand only once.

System: Hep G2 cells
Assay: Cholesterol measurement in Hep G2 cells exposed to HMG CoA Reductase peptides
Format: cell-based, human
Conditions: 24 hrs; for Cholesterol Content Cell / Cholesterol Content Media: triplicate; for Total Cholesterol: cell + media
Source text: Cholesterol Measurement in Hep G2 Cells Exposed to HMG CoA Reductase Peptides:
A. Selection of therapeutic oligopeptides for these expenments • i. The peptides were selected according to the method described herein. In brief, 6 oligopeptides corresponding to the hydrophilic amino acid maxima of human hydroxy-methyl-glutaryl-CoA-reductase were selected according to the maximum hydrophilicity determining algorithm described herein. The following sequences were selected. • I. N-SQDEVREN-C (SEQ ID NO:42) • II. N-ELSRESREGR-C (SEQ ID NO:44) • III. N-RVLEEEENK-C (SEQ ID NO:46) • IV. N-QKCDSVEE-C (SEQ ID NO:56) • V. N-EETGINRERKVE-C (SEQ ID NO:60) • VI. N-EPEIELPREPRPNEE-C (SEQ ID NO:64)
B. Materials and methods • i. Hep G2 cells were seeded into six-well dishes at 30,0000 cells/well in MEM-supplemented media with 10% FBS. Cells were grown to near confluency and exposed to • I. media alone • II. Mevastatin 5ΦMol (Cholestrol-lowering Statin drug) and, • III. HMG CoA Reductase peptides at 1, 10 and 100 ΦMol. • ii. All treatments were carried out in triplicate. After 24 hrs the media was removed and saved. • iii. The cells were washed with 1 ml of PBS and combined with the media. The cells were harvested with 1 ml of 0.1 N NaOH. • iv. Samples, both media and cells, were saponified with 0.5 ml 50% KOH, 3 ml ethanol, separately at 80EC for 2 hrs. • v. After cooling, the samples were extracted twice with petroleum ether and washed with NaOH. • vi. The samples were the dried under nitrogen and suspended in 200 Φl ethanol. • vii. 50 Φl of this suspension was used for determination of cholesterol. Cholesterol was determined in the samples and standards using colorimetric assay (Sigma Kit). • viii. Protein was determined by Lowry's method and the results were expressed as Φgm cholesterol/mg protein. C. Results • i.

Compound | Cholesterol Lowering in % of Control (5 ΦM) | Cholesterol Content Cell (5 ΦM) | Cholesterol Content Media (5 ΦM) | Total Cholesterol (5 ΦM) | Cholesterol Lowering in % of Control (1 ΦM) [%] | Cholesterol Content Cell (1 ΦM) | Cholesterol Content Media (1 ΦM) | Cholesterol Lowering in % of Control (10 ΦM) [%] | Cholesterol Content Cell (10 ΦM) | Cholesterol Content Media (10 ΦM) | Cholesterol Lowering in % of Control (100 ΦM) [%] | Cholesterol Content Cell (100 ΦM) | Cholesterol Content Media (100 ΦM) | Total Cholesterol (1 ΦM) | Total Cholesterol (10 ΦM) | Total Cholesterol (100 ΦM)
CC[C@H](C)C(=O)O[C@H]1CCC=C2C=C[C@H](C)[C@H](CC[C@@H]3C[C@@H](O)CC(=O)O3)[C@H]21 [Mevastatin, reference compound] | 19.0% and 18.0% | 125.0 ± 4.6 Φ gm/mg protein and 124.4 ± 4.4 Φ gm/mg protein | 37.5 ± 3.0 Φ gm/mg protein and 57.5 ± 5.2 Φ gm/mg protein | 162.6 ± 7.6 Φ gm/mg protein and 182.0 ± 7.0 Φ gm/mg protein |  |  |  |  |  |  |  |  |  |  |  | 
N-EETGINRERKVE-C [Peptide 5, oligopeptide corresponding to a hydrophilic amino acid maximum of human hydroxy-methyl-glutaryl-CoA-reductase] |  |  |  |  | 1.5 | 140.7 ± 8.6 Φ gm/mg protein | 56.8 ± 1.0 Φ gm/mg protein | 0.0 | 149.0 ± 4.4 Φ gm/mg protein | 50.7 ± 1.0 Φ gm/mg protein | 0.0 | 161.7 ± 23.5 Φ gm/mg protein | 48.0 ± 1.6 Φ gm/mg protein | 197.0 ± 9.2 Φ gm/mg protein | 200.0 ± 5.0 Φ gm/mg protein | 210.0 ± 25.0 Φ gm/mg protein
N-ELSRESREGR-C [Peptide 2, oligopeptide corresponding to a hydrophilic amino acid maximum of human hydroxy-methyl-glutaryl-CoA-reductase] |  |  |  |  | 29.0 | 94.0 ± 8.3 Φ gm/mg protein | 64.3 ± 4.2 Φ gm/mg protein | 33.0 | 85.0 ± 8.4 Φ gm/mg protein | 63.7 ± 9.5 Φ gm/mg protein | 34.0 | 86.0 ± 4.7 Φ gm/mg protein | 59.0 ± 6.0 Φ gm/mg protein | 158.3 ± 6.3 Φ gm/mg protein | 148.6 ± 11.8 Φ gm/mg protein | 146.9 ± 8.8 Φ gm/mg protein
N-EPEIELPREPRPNEE-C [Peptide 6, oligopeptide corresponding to a hydrophilic amino acid maximum of human hydroxy-methyl-glutaryl-CoA-reductase] |  |  |  |  | 4.0 | 144.3 ± 7.5 Φ gm/mg protein | 47.4 ± 0.5 Φ gm/mg protein | 8.0 | 136.0 ± 12.2 Φ gm/mg protein | 48.0 ± 3.4 Φ gm/mg protein | 9.0 | 132.0 ± 4.4 Φ gm/mg protein | 50.4 ± 1.0 Φ gm/mg protein | 192.0 ± 8.0 Φ gm/mg protein | 184.0 ± 8.4 Φ gm/mg protein | 182.4 ± 4.8 Φ gm/mg protein
N-QKCDSVEE-C [Peptide 4, oligopeptide corresponding to a hydrophilic amino acid maximum of human hydroxy-methyl-glutaryl-CoA-reductase] |  |  |  |  | 8.0 | 134.7 ± 3.2 Φ gm/mg protein | 50.4 ± 2.5 Φ gm/mg protein | 10.0 | 126.1 ± 4.2 Φ gm/mg protein | 49.0 ± 1.0 Φ gm/mg protein | 9.0 | 127.7 ± 9.3 Φ gm/mg protein | 53.8 ± 0.5 Φ gm/mg protein | 184.3 ± 5.5 Φ gm/mg protein | 175.2 ± 3.8 Φ gm/mg protein | 181.7 ± 9.3 Φ gm/mg protein
N-RVLEEEENK-C [Peptide 3, oligopeptide corresponding to a hydrophilic amino acid maximum of human hydroxy-methyl-glutaryl-CoA-reductase] |  |  |  |  | 10.0 | 137.3 ± 4.5 Φ gm/mg protein | 64.0 ± 2.7 Φ gm/mg protein | 10.0 | 135.0 ± 4.5 Φ gm/mg protein | 65.5 ± 4.7 Φ gm/mg protein | 10.0 | 135.0 ± 7.0 Φ gm/mg protein | 65.5 ± 1.4 Φ gm/mg protein | 201.3 ± 3.3 Φ gm/mg protein | 200.7 ± 9.0 Φ gm/mg protein | 200.5 ± 5.4 Φ gm/mg protein
N-SQDEVREN-C [Peptide 1, oligopeptide corresponding to a hydrophilic amino acid maximum of human hydroxy-methyl-glutaryl-CoA-reductase] |  |  |  |  | 28.0 | 92.5 ± 4.7 Φ gm/mg protein | 65.2 ± 4.0 Φ gm/mg protein | 30.0 | 88.6 ± 1.6 Φ gm/mg protein | 60.6 ± 0.5 Φ gm/mg protein | 30.0 | 94.0 ± 4.0 Φ gm/mg protein | 61.1 ± 2.4 Φ gm/mg protein | 158.7 ± 5.6 Φ gm/mg protein | 149.1 ± 2.0 Φ gm/mg protein | 155.3 ± 6.4 Φ gm/mg protein
